Measurements taken from patent US7879821B2, “Method for modulating inflammatory responses by altering plasma lipid levels” (University of Medicine and Dentistry of New Jersey, priority 2006, dated 2011).
pIC50: −log10 of the molar value. “Also recorded” adds a separate entry of the source. Each block holds one molecule with its values, some of them ahead of it.

What was measured:
human neutrophils (PMN) = assay: Cholesterol-mediated Ca2+ influx in human PMN (fura-2 calcium spectrofluorometry); type: cell-based; conditions: for effect on cholesterol mediated Ca2+ influx (actin reorganization): Caly A 50 nM in cuvette, Cyto D pretreatment 2.5 uM 15 min, cholesterol 10 ug/ml; for effect of calcium channel blocker on cholesterol-mediated PMN calcium entry: dose response curves not shown
PMN lipid raft fractions = assay: Cholesterol content of PMN lipid raft fractions isolated by ultracentrifugation; type: cell-based, human; conditions: for ratio of cholesterol to protein / cholesterol concentration in the lowest density raft fractions: PMN pretreated, micromolar concentrations, absence of albumin; for change of cholesterol in raft fractions versus higher density fractions: cholesterol 10 μg/ml 10 minutes or MβCD 10 μM/10 min
Description: Lipid raft fractions were isolated by ultracentrifugation from PMN treated with S1P, cholesterol or buffer only (“none”). […] After isolation from 2-3 normal volunteer donors, 5×10^7 PMN were divided into aliquots. Aliquots were treated at 37° C. with 10 μg/ml water-soluble cholesterol for 10 minutes, MβCD (10 μM/10 min) or with vehicle. All steps thereafter were performed on ice. Cells were spun and pellets resuspended in 1 ml of base buffer (20 mM Tris-HCl pH 7.8, 250 mM Sucrose, 1 mM CaCl2 and 1 mM MgCl2) containing protease inhibitor and 50 μg/ml calpain inhibitor 1. Cells were disrupted by passage through a 22 g 3″ needle 10 times. Fragmented cells were sonicated 5×20 s, cooling the cells on ice between sonications. […] The cell pellets were resuspended in 1 ml base buffer with inhibitors and the sonication repeated. The two postnuclear supernatants were combined and an equal volume of 50% Optiprep added. […] Tubes were then centrifuged (52,000 g; 3 hours) and serial 670 μl fractions were collected from the top of the tube using careful pipetting. Protein in each fraction was assayed by micro BCA assay method (Pierce, Rockford Ill.). Cholesterol was assayed using an Amplex Red cholesterol assay kit (Molecular Probes). Alkaline phosphatase was assayed using p-nitrophenyl phosphate as substrate. […] No detergents were used in raft preparation.

PMN [1] = assay: Store-operated calcium entry (SOCE) initiated by fMLP and Tg in PMN; type: cell-based, human
Description: We hypothesized that calcium-entry dependent functions like RB would depend upon S1P synthesis and subsequent S1P interactions with rafts. Thus we developed a calcium-entry dependent RB model where Ca entry was manipulated by sphingosine kinase (SphK) inhibition, which inhibits S1P synthesis in response to internal calcium store release. […] Note that the vast majority of cell [Ca^2+] increases are due to calcium influx on re-calcifying the medium.
(§1) PMN were suspended in HEPES buffer with 1 mM CaCl2 and 0.1% BSA and incubated with 2 μg/mL fura-2AM for 30 minutes in the dark at 37° C. Cells were divided into aliquots (2×10^6 PMN) and placed on ice in the dark. Prior to study, samples were warmed to 37°, centrifuged (4500 RPM, 5 sec) and supernatants removed. Pellets were resuspended in 200 μl of BSA-free and ‘nominally calcium-free’ HEPES buffer (with 0.3 mM EGTA) and finally injected into cuvettes containing 2.8 mL of the same buffer for study. Intracellular free calcium concentration ([Ca2+]i) was determined from the fluorescence at 505 nm using 340/380 nm dual wavelength excitation. (Fluoromax-2, Jobin-SPEX, Edison, N.J.).

PMN [2] = assay: Calcium-entry dependent respiratory burst (RB) initiated by fMLP/Tg in PMN; type: cell-based, human; conditions: for effect of cholesterol depletion on fMLP/Tg RB: MBCD 10 mM/10 min, fMLP/TG 100 nM/1 uM
Description: The graph represents Vmax slopes values. n=2 for Blank, Cholesterol Blank and Cholesterol alone. The others are n=6.
RB was assessed in PMN suspensions. Briefly, 2×10^6 PMN were suspended in 3 ml of HEPES buffer with 0.1% BSA and 15 ng/ml of 1,2,3-dihydrorhodamine (DHR) added. Cells were studied at 37° C. with constant stirring using excitation at 488 nm and emission at 530 nm. RB was allowed to become linear and achieve maximal reaction rate (Vmax). The fluorescent intensity (FI) curve of oxidized DHR was compiled for 60 seconds during Vmax. Curve-fitting analysis was performed over the linear portion (Sigma-Plot 4.0, SPSS, Chicago, Ill.). Vmax was assessed as the first derivative of the fluorescent intensity in counts per second (CPS).
Next we evaluated the functional relevance of cholesterol-mediated Ca^2+ influx. We studied a PMN model where RB depends entirely on extra-cellular calcium entry to see if RB would vary with the incorporation of cholesterol into rafts.
To do this, PMN were pre-incubated with MβCD, with vehicle or with varying concentrations of cholesterol to vary membrane raft cholesterol content (FIG. 21B). After the pre-incubation, RB was initiated using fMLP/Tg.

PMN lipid rafts (GM-1) = assay: Immunofluorescent microscopy for GM-1 (FITC-CTB) in PMN rafts; type: cell-based, human; conditions: free cholesterol 10 μg/mL
PMN [3] = assay: PMN calcium entry responses to S1P; type: cell-based, human
Description: To evaluate whether Ca^2+-entry responses to S1P were raft dependent, we then disrupted lipid rafts using MBCD to bind raft cholesterol.
as §1

PMN [4] = assay: fMLP-mediated Ca2+ entry in PMN; type: cell-based, human
Description: as §1
To confirm that the effects of cholesterol on GPCR mediated Ca^2+ entry were generalized and not restricted to PAF we evaluated the effects of cholesterol on fMLP-mediated Ca^2+ entry. Consistent with PAF, fMLP-linked Ca^2+ entry responses were suppressed by MβCD and augmented by cholesterol (FIG. 23, upper panel).

human PMN = assay: PAF mediated SOCE in human PMN; type: cell-based
PMN [5] = assay: Thapsigargin (TG) initiated Ca2+ entry in PMN; type: cell-based, human
Description: as §1
Since cholesterol had no discernable effect on ER Ca^2+ store release in response to PAF we examined the possibility that could play a direct role in the regulation of store-operated Ca^2+ entry; a Ca^2+ entry mechanism that is completely independent of GPCR activation. To study this we used thapsigargin (TG). TG blocks ER Ca^2+ ATPase pumps, thus depleting ER Ca^2+ stores directly and causing calcium entry independent of GPCR activation.

TRPC1 = assay: Western blotting for TRPC1 in PMN raft fractions; type: cell-based, human; conditions: for global TRPC1 protein expression in whole cell lysates: 10 minutes exposure
Description: TRPC1 is a prototypic calcium channel protein of the TRP family. PMN express multiple TRPC proteins that are known to traffic to the cell membrane during Ca entry. We therefore studied TRPC1 raft-trafficking in response to cholesterol as an initial proof of principle that raft cholesterol concentration might regulate the distribution of multiple Ca^2+-influx related proteins to or from the cell membrane. We analyzed 20 μl of each gradient fraction by electrophoresis on a SDS gel followed by Western blotting for TRPC1 protein. The primary rabbit anti-human TRPC1 antibody (Santa Cruz) was used at 1:1,600 dilution. Secondary goat anti-rabbit antibody was used at 1:16,000 dilution. An ECL Western blotting detection kit was used to develop the blots which were imaged as above.
We therefore used Western blots to probe for TRPC1 in fractions 2-4 of pooled normal volunteer PMN fractionated with or without prior incubation in 10 μg/mL cholesterol (FIG. 26).
Subsequently, we sought to determine the source of the increased TRPC1 in the lipid raft fractions. Whole cell lysates from cholesterol treated and untreated cells were compared (not shown). […] Since the events leading to calcium entry are very rapid, later time points were not studied. Finally, we assayed TRPC1 in individual raft fractions from concurrently treated and analyzed PMN specimens (FIG. 27). […] Thus a redistribution of TRPC1 occurs in response to cholesterol treatment which appears to reflect trafficking of the protein to raft fractions rather than de novo synthesis.

[6] = fMLP/Tg RB after pre-incubation

Molecule: COC[C@@H]([C@H](O)[C@H](O)C(=O)NCC[C@H](C)c1nc(/C=C/C[C@@H]2O[C@]3(C[C@@H](O)[C@@H]2C)O[C@H]([C@H](C[C@H](O)[C@H](C)[C@H](O)[C@H](C)/C=C(C)/C(C)=C/C=C/C(C)=C\C#N)OC)[C@H](OP(=O)(O)O)C3(C)C)co1)N(C)C [CalyA, Calyculin A]
effect on cholesterol mediated Ca2+ influx (actin reorganization) (human neutrophils (PMN)): abolished

Molecule: C=C1[C@@H](C)[C@H]2[C@H](Cc3ccccc3)NC(=O)[C@]23[C@H](OC(C)=O)/C=C/[C@@](C)(O)C(=O)[C@@H](C)C/C=C/[C@H]3[C@@H]1O [CytoD, Cytochalasin D]
effect on cholesterol mediated Ca2+ influx (actin reorganization) (human neutrophils (PMN)): reversed the inhibition

Molecule: [La+3] [La^3+, lanthanum]
inhibition of cholesterol mediated PMN Ca2+ influx by lanthanum (human neutrophils (PMN); 1 mM): inhibited; also recorded: almost totally inhibits

Molecule: CCCCCCCCCCCCC/C=C/[C@@H](O)[C@@H](N)COP(=O)(O)O [S1P, sphingosine 1-phosphate, reference compound]
ratio of cholesterol to protein / cholesterol concentration in the lowest density raft fractions (PMN lipid raft fractions): increases in cholesterol concentration
ratio of cholesterol to protein / cholesterol concentration in the lowest density raft fractions (PMN lipid raft fractions; listed as SIP): even greater increases in cholesterol concentration
reversal of SKI-2 inhibition of SOCE by exogenous S1P (PMN [1]; 5 M S1P, 30 μM SKI-2): totally reversed; also recorded: reverses 30 μM SKI-2 inhibition
rescue of RB after SKI-2 inhibition (PMN [2]; S1P 5 uM after SKI-2 30 uM): rescue of RB
restoration of RB by S1P after MβCD cholesterol depletion (PMN [2]; n=4-6): restored RB to control levels

pIC50 (human neutrophils (PMN); Neutrophil, human PMN, 3-4 experiments per condition, read-out: IC50 for block of cholesterol-mediated PMN calcium entry): ~4.52
Molecule: COc1ccc(CCCOC(Cn2ccnc2)c2ccc(OC)cc2)cc1 (centres unmarked) [SKF96365]
effect of calcium channel blocker on cholesterol-mediated PMN calcium entry (human neutrophils (PMN); human PMN): inhibited
effect of calcium channel blocker on cholesterol-mediated PMN calcium entry (human neutrophils (PMN); human PMN, listed as SKF): quantitatively inhibited

Molecule: Oc1ccc(Nc2nc(-c3ccc(Cl)cc3)cs2)cc1 [SKI-2]
effect on SOCE initiated by fMLP and Tg (PMN [1]; fMLP 100 nM, Tg 1 uM): inhibited; also recorded: suppressing SOCE
effect of SphK inhibition on fMLP/Tg induced RB (PMN [2]; 30 uM, n=4): blocked fMLP/Tg induced RB down to background levels

Molecule: CC(C)CCC[C@@H](C)[C@H]1CC[C@H]2[C@@H]3CC=C4C[C@@H](O)CC[C@]4(C)[C@H]3CC[C@]12C [cholesterol]
membrane GM-1 binding and raft coalescence (PMN lipid rafts (GM-1)): increased membrane GM-1 available for binding
ratio of cholesterol to protein / cholesterol concentration in the lowest density raft fractions (PMN lipid raft fractions): more than doubles
change of cholesterol in raft fractions versus higher density fractions (PMN lipid raft fractions): incorporated preferentially into the low density fractions
effect of cholesterol concentrations above 10 μg/mL on PMN Ca2+ uptake (human neutrophils (PMN); above 10 μg/mL, direct stimulation and combination with S1P): suppress PMN Ca^2+ uptake
direct calcium entry caused by cholesterol at re-addition dose (human neutrophils (PMN); cholesterol 3 ug/ml final): does not itself cause calcium entry
direct effect of cholesterol on calcium entry into human PMN (human neutrophils (PMN); free cholesterol, albumin-free media): caused Ca entry without any antecedent release of calcium stores; also recorded: potent, dose-dependent activator; also recorded: direct dose-related response
effect of cholesterol on patient PMN calcium entry response to S1P (PMN [3]; injured patients' PMN, cholesterol 30 ug/ml, n=8 PMN isolates): restored to healthy volunteer levels; also recorded: exceed basal levels
reversal of MβCD effect on S1P calcium entry by cholesterol replenishment (PMN [3]; n=3): reversible; also recorded: reversal of the MβCD effect
effect on fMLP-linked Ca2+ entry responses (PMN [4]): augmented
effect of very high cholesterol concentrations on fMLP-mediated Ca2+ entry (PMN [4]; very high cholesterol concentrations): suppressed calcium entry
effect on release of Ca2+ from cell stores (PAF) (human PMN; PAF 100 nM): no effect upon Ca^2+ store mobilization
effect of cholesterol present in cuvette on PAF Ca2+ entry in normal cells (human PMN; normal PMN, brief exposure): increased Ca^2+ entry
rescue of PAF Ca2+ entry by cholesterol after MβCD (human PMN; small amounts of cholesterol (3 ug/ml final)): rescued Ca^2+entry
reversal of MβCD inhibition of TG Ca2+ entry by cholesterol re-addition (PMN [5]): immediately reversed and even overcome
global TRPC1 protein expression in whole cell lysates (TRPC1): No differences in global TRPC1 protein expression
TRPC1 protein in membrane lipid raft fractions (TRPC1; pre-incubation in 10 μg/mL cholesterol): increases the amount of TRPC1 protein; also recorded: redistribution of the TRPC1 signal from higher density fractions into the raft fractions
rescue of RB by cholesterol in MBCD treated neutrophils (PMN [2]; cholesterol 30 ug/ml): rescued RB from MβCD inhibition; also recorded: significantly rescued that RB
external cholesterol concentration yielding optimal PMN oxidant production (PMN [2]; [6]): 10 µg/mL
external cholesterol concentration yielding optimal PMN oxidant production (molar) (PMN [2]; [6]): ~25 µM
effect of increasing (high) cholesterol concentrations on RB (PMN [2]; pre-incubation, higher concentrations (FIG. 21B columns 6-7)): decreased the degree of respiratory burst
effect of lower cholesterol concentrations on RB (PMN [2]; pre-incubation, lower concentrations (FIG. 21B columns 3-5)): dose-dependent augmentation of RB

Molecule: COc1ccc(CCN(C)CCCC(C#N)(c2ccc(OC)c(OC)c2)C(C)C)cc1OC (centres unmarked) [verapamil]
effect of calcium channel blocker on cholesterol-mediated PMN calcium entry (human neutrophils (PMN); human PMN): not inhibited; also recorded: no effect
effect of calcium channel blocker on cholesterol-mediated PMN calcium entry (human neutrophils (PMN); human PMN, listed as VER): no effect at any concentration

Molecule: methyl-β cyclodextrin [MβCD]
change of cholesterol in raft fractions versus higher density fractions (PMN lipid raft fractions): removed cholesterol from raft fractions
effect of MβCD on patient PMN Ca2+ entry responses to S1P (PMN [3]; injured patients' PMN): further suppressed
effect of raft disruption on PMN calcium entry responses to S1P (PMN [3]; n=3): completely blocks calcium entry
effect of raft disruption on PMN calcium entry responses to S1P (PMN [3]; n=3, listed as MBCD): completely blocked
effect on fMLP-linked Ca2+ entry responses (PMN [4]): suppressed
effect on release of Ca2+ from cell stores (PAF) (human PMN; PAF 100 nM): no effect whatsoever
effect on PAF-initiated Ca2+ entry after cholesterol sequestration (human PMN; PAF 100 nM, MBCD 10 mM 10 minutes): blocked
effect on TG initiated Ca2+ entry (PMN [5]): markedly inhibited
global TRPC1 protein expression in whole cell lysates (TRPC1): No differences in global TRPC1 protein expression
effect of cholesterol depletion on fMLP/Tg RB (PMN [2]): inhibited RB; also recorded: clear suppression of RB; also recorded: markedly suppressed RB responses
effect of cholesterol depletion on fMLP/Tg RB (PMN [2]; listed as MBCD): blocks RB; also recorded: attenuated
